We go through one compound from PubChem BioAssay AID504478 (NMMLSC, 2011).

In this test the target is Serine/threonine-protein kinase SCH9 (Saccharomyces cerevisiae (strain ATCC 204508 / S288c)) (UniProt P11792). Briefly: Sch9 T570 phosphorylation inhibition in yeast, SAR follow-up, mechanism study for yeast TOR pathway modulator project, cell-based, HA-Sch9, immunoblot (AID 504478). As to conditions: S. cerevisiae HA-Sch9, T570 phospho immunoblot, 30 min. A general note: A western blot detects proteins with antibodies after separation by electrophoresis.
Serine/threonine-protein kinase SCH9 (Saccharomyces cerevisiae (strain ATCC 204508 / S288c)), sequence (P11792 whole entry, looked up): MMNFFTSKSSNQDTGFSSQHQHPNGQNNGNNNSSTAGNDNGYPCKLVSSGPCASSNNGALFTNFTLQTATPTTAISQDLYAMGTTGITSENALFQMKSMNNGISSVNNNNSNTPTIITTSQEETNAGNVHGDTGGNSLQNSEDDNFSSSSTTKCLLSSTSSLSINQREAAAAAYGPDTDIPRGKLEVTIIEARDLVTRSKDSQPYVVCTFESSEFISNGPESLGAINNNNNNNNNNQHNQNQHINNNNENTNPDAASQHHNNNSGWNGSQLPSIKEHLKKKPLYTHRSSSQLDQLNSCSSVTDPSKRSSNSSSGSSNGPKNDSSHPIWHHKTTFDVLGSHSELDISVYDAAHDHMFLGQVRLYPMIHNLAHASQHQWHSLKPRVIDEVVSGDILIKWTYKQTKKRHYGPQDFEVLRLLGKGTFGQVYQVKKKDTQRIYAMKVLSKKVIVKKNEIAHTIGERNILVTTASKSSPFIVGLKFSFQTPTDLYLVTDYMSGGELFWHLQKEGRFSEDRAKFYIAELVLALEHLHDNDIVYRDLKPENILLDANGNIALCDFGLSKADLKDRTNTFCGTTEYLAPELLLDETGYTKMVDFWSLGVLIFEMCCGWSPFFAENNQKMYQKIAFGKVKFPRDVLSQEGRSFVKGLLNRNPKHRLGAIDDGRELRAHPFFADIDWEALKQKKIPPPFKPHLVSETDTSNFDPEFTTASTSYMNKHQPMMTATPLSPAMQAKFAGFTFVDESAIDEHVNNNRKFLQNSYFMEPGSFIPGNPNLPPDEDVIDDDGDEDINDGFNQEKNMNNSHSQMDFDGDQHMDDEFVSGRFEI

The IC50 is the concentration at which inhibition is half-maximal.

For the compound `CNc1nc(N)c([N+](=O)[O-])c(Nc2cccc(F)c2)n1`, the IC50 is 4.5 µM.
